Source: article PMC8296573, “Synthesis and Biological Evaluation of Fingolimod Derivatives as Antibacterial Agents” (ACS Omega, 2021)
In brackets after ≈: the same amount, converted by molar mass. Where two headings read alike, the source gives them in different places.

What was measured:
[1] = tested on: S. aureus ATCC 25923; test: Antibacterial activity, pre-exposure (planktonic cells and biofilm formation); type: cell-based, Staphylococcus aureus; conditions: for MIC / inhibition at 5 µM / inhibition at 10 µM / inhibition at 15 µM / inhibition at 25 µM: Staphylococcus aureus, ATCC25923; for inhibition at 5 µM / inhibition at 10 µM / inhibition at 15 µM / inhibition at 25 µM / Average inhibition %, biofilms viability / Average inhibition %, planktonic cells viability: pre-exposure, ± SD
In short: (§1)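 Pre-exposure format: compound and bacterial culture co-incubated 18 h, 37 °C, aerobic, 220 rpm. Planktonic: turbidity (OD) plus resazurin viability, 20 μM final. Biofilm: PBS wash, 20 μM resazurin, then ethanol fixation and crystal violet staining, A595.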

[2] = tested on: S. aureus ATCC 25923; test: Antibacterial activity, post-exposure on preformed 18-h-old biofilms; type: cell-based, Staphylococcus aureus; conditions: ± SD; for inhibition at 25 µM / inhibition at 50 µM / inhibition at 100 µM / inhibition at 200 µM: Staphylococcus aureus; for inhibition at 25 µM: ATCC25923, 25 µM; for inhibition at 50 µM: ATCC25923, 50 µM; for inhibition at 100 µM: ATCC25923, 100 µM; for inhibition at 200 µM: ATCC25923, 200 µM
In short: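 Compounds were applied to preformed 18-h biofilms after medium change and left 24 h. Read-outs: planktonic OD plus resazurin fluorescence (20 μM), biofilm metabolic activity by resazurin 30 min at 37 °C, then biomass by crystal violet absorbance at 595 nm after ethanol fixation.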

[3] = tested on: A. baumannii NCTC 13423; test: Antibacterial activity, pre-exposure; type: cell-based, Acinetobacter baumannii; conditions: for Average inhibition %, biofilms viability / Average inhibition %, planktonic cells viability / inhibition at 10 µM / inhibition at 15 µM / inhibition at 25 µM / inhibition at 50 µM: A. baumannii NCTC 13423, pre-exposure, ± SD; for inhibition at 10 µM / inhibition at 15 µM / inhibition at 25 µM / inhibition at 50 µM / MIC: Acinetobacter baumannii, NCTC13423
In short: as §1

[4] = tested on: P. aeruginosa ATCC 9027; test: Antibacterial activity, pre-exposure; type: cell-based, Pseudomonas aeruginosa; conditions: for Average inhibition %, biofilms viability / Average inhibition %, planktonic cells viability / inhibition at 50 µM / inhibition at 100 µM / inhibition at 150 µM / inhibition at 200 µM: P. aeruginosa ATCC 9027, pre-exposure, ± SD; for inhibition at 50 µM / inhibition at 100 µM / inhibition at 150 µM / inhibition at 200 µM: Pseudomonas aeruginosa, ATCC9027
In short: as §1

[5] = 10 µM, read-out: Average inhibition %, biofilms biomass
[6] = 10 µM, read-out: Average inhibition %, planktonic cells turbidity
[7] = 15 µM, read-out: Average inhibition %, biofilms biomass
[8] = 15 µM, read-out: Average inhibition %, planktonic cells turbidity
[9] = 25 µM, read-out: Average inhibition %, biofilms biomass
[10] = 25 µM, read-out: Average inhibition %, planktonic cells turbidity
[11] = read-out: Average inhibition %, biofilms biomass
[12] = read-out: Average inhibition %, planktonic cells turbidity
[13] = 50 µM, read-out: Average inhibition %, biofilms biomass
[14] = 50 µM, read-out: Average inhibition %, planktonic cells turbidity

CCCCCC/C=C/c1ccc(CCC(N)(CO)CO)cc1 [Compound 42, (E)-2-Amino-2-[4-(oct-1-en-1-yl)phenethyl]propane-1,3-diol]
MIC ([1]; lowest concentration with no visible growth (>90% inhibition of turbidity and viability of planktonic cells), 18 h, read-out: MIC S. aureus ATCC 25923): 15 to 25 µM (≈ 4.58 to 7.64 µg/mL) | inhibition at 5 µM ([1]; 5 µM, read-out: Average inhibition %, biofilms biomass): 41 ± 12.1% | inhibition at 5 µM ([1]; 5 µM, read-out: Average inhibition %, planktonic cells turbidity): 18.8 ± 12.6% | inhibition at 10 µM [1, 5]: 62.5 ± 24.1% | inhibition at 10 µM [1, 6]: 53.3 ± 32.3% | inhibition at 15 µM [1, 7]: 80.5 ± 26.4% | inhibition at 15 µM [1, 8]: 84.6 ± 26.1% | inhibition at 25 µM [1, 9]: 95.1 ± 0.5% | inhibition at 25 µM [1, 10]: 99.4 ± 0.5% | MIC ([1]; read-out: MIC (S. aureus)): 15 to 25 µM (≈ 4.58 to 7.64 µg/mL) | Average inhibition %, biofilms viability ([1]; 5 µM): 16.3 ± 4.8% | Average inhibition %, planktonic cells viability ([1]; 5 µM): 1.7 ± 3% | Average inhibition %, biofilms viability ([1]; 10 µM): 55.9 ± 31% | Average inhibition %, planktonic cells viability ([1]; 10 µM): 31.6 ± 54.9% | Average inhibition %, biofilms viability ([1]; 15 µM): 81.1 ± 32.3% | Average inhibition %, planktonic cells viability ([1]; 15 µM): 66.4 ± 57.5% | Average inhibition %, biofilms viability ([1]; 25 µM): 99.2 ± 0.8% | Average inhibition %, planktonic cells viability ([1]; 25 µM): 99.6 ± 0.2% | Average inhibition %, biofilms viability ([2]; 25 µM): 20 ± 6.1% | Average inhibition %, planktonic cells viability ([2]; 25 µM): 2.8 ± 5% | Average inhibition %, biofilms viability ([2]; 50 µM): 42 ± 16% | Average inhibition %, planktonic cells viability ([2]; 50 µM): 19.1 ± 18.9% | Average inhibition %, biofilms viability ([2]; 100 µM): 48.3 ± 2.3% | Average inhibition %, planktonic cells viability ([2]; 100 µM): 68.7 ± 18.2% | Average inhibition %, biofilms viability ([2]; 200 µM): 44.8 ± 10.4% | Average inhibition %, planktonic cells viability ([2]; 200 µM): 35.1 ± 44.8% | inhibition at 25 µM [2, 11]: 39 ± 2.5% | inhibition at 25 µM [2, 12]: 12 ± 9.6% | inhibition at 50 µM [2, 11]: 54.1 ± 1.9% | inhibition at 50 µM [2, 12]: 29.7 ± 16.3% | inhibition at 100 µM [2, 11]: 54.8 ± 5.9% | inhibition at 100 µM [2, 12]: 56.9 ± 19.5% | inhibition at 200 µM [2, 11]: 59.8 ± 21% | inhibition at 200 µM [2, 12]: 46.2 ± 27.3% | Average inhibition %, biofilms viability ([3]; 10 µM): 0.4 ± 0.3% | Average inhibition %, planktonic cells viability ([3]; 10 µM): 13.5 ± 3.1% | Average inhibition %, biofilms viability ([3]; 15 µM): 12.8 ± 7.2% | Average inhibition %, planktonic cells viability ([3]; 15 µM): 6 ± 6.6% | Average inhibition %, biofilms viability ([3]; 25 µM): 47.6 ± 37.1% | Average inhibition %, planktonic cells viability ([3]; 25 µM): 33.1 ± 52.5% | Average inhibition %, biofilms viability ([3]; 50 µM): 87.7 ± 9.8% | Average inhibition %, planktonic cells viability ([3]; 50 µM): 81 ± 27.7% | inhibition at 10 µM [3, 5]: 2.4 ± 4.3% | inhibition at 10 µM [3, 6]: 0% | inhibition at 15 µM [3, 7]: 6.2 ± 6% | inhibition at 15 µM [3, 8]: 0.6 ± 1% | inhibition at 25 µM [3, 9]: 18.2 ± 21.6% | inhibition at 25 µM [3, 10]: 40.8 ± 42.7% | inhibition at 50 µM [3, 13]: 67.2 ± 13.9% | inhibition at 50 µM [3, 14]: 83.1 ± 17.5% | MIC ([3]; pre-exposure, Inactive = no activity up to 50 μM, > = some inhibition but no MIC reached, read-out: MIC A. baumannii NCTC 13423): > 50 µM | MIC ([3]; supplementary molecular formula strings sheet, read-out: MIC (A. baumannii)): > 50 µM | Average inhibition %, biofilms viability ([4]; 50 µM): 3.9 ± 6.8% | Average inhibition %, planktonic cells viability ([4]; 50 µM): 24.8 ± 10.1% | Average inhibition %, biofilms viability ([4]; 100 µM): 1.5 ± 2.6% | Average inhibition %, planktonic cells viability ([4]; 100 µM): 15.1 ± 18% | Average inhibition %, biofilms viability ([4]; 150 µM): 0.9 ± 1.7% | Average inhibition %, planktonic cells viability ([4]; 150 µM): 18.9 ± 31% | Average inhibition %, biofilms viability ([4]; 200 µM): 0 ± 0% | Average inhibition %, planktonic cells viability ([4]; 200 µM): 27 ± 45% | inhibition at 50 µM [4, 13]: 30.1 ± 8.8% | inhibition at 50 µM [4, 14]: 16.3 ± 5.3% | inhibition at 100 µM ([4]; 100 µM, read-out: Average inhibition %, biofilms biomass): 30.3 ± 0.8% | inhibition at 100 µM ([4]; 100 µM, read-out: Average inhibition %, planktonic cells turbidity): 37.1 ± 13.5% | inhibition at 150 µM ([4]; 150 µM, read-out: Average inhibition %, biofilms biomass): 27.7 ± 2.1% | inhibition at 150 µM ([4]; 150 µM, read-out: Average inhibition %, planktonic cells turbidity): 45.1 ± 17.4% | inhibition at 200 µM ([4]; 200 µM, read-out: Average inhibition %, biofilms biomass): 36.2 ± 10.3% | inhibition at 200 µM ([4]; 200 µM, read-out: Average inhibition %, planktonic cells turbidity): 53.5 ± 14.1% | MIC P. aeruginosa ATCC 9027 ([4]; pre-exposure, Inactive = no activity up to 200 μM, > = some inhibition but no MIC reached): Inactive
